Measured values published in patent publication US8815590B2, “Composition and method for differentiation of human embryonic stem cells” (Stem Cells for Safer Medicines Limited, priority 2009, dated 2014).

Test system: GSK-3
Assay: Phospho-β-catenin immunoblot and TOPFlash luciferase reporter assay in human ESCs
Format: cell-based
Settings: 30 min (immunoblot) or 24 hr (TOPFlash)
Protocol: (A) ESCs [SHEF3] were cultured on MEFs or on Matrigel® in mTeSR1® media and treated with BIO or 1M for 30 min. Protein extracts were prepared and immunoblotting was performed using antibodies detecting the phosphorylated form of […]. The same immunoblot in each case was reprobed for total β-catenin to assess loading. (B) TOPFlash luciferase reporter assay of ESCs [SHEF1] treated for 24 hr with BIO or 1M at the indicated concentrations. Luciferase activity is expressed as a fold increase in activation compared with the normalised TOPFlash luciferase activity in untreated (Con) cells. Data represent the mean+/−SEM of 3 independent experiments.
Cell lysates (20 μg) were prepared, separated by SDS-PAGE and transferred to nitrocellulose as described previously (Welham et al., 1994). […] Images were captured and analysed using the ImageQuant RT ECL system (GE Healthcare). […]
The TOPFlash luciferase reporter plasmid (containing four consensus TCF binding sites upstream of the c-fos minimal promoter, driving expression of a firefly luciferase reporter) and its negative control plasmid FOPFlash (containing four mutant TCF binding sites) were provided by Dr C. […] Cell extracts were prepared and firefly and Renilla luciferase activities were determined using the dual-luciferase reporter assay system according to the manufacturer's instructions (Promega). […]

O=C1NC(=O)C2=C1c1cn(c3ccccc13)CCOCCOCCOCCOCCn1cc2c2ccccc21 [1M]
GSK-3-mediated signaling (β-catenin phosphorylation, TOPFlash activity): inhibits GSK-3-mediated signaling
